# Source: ChEMBL document CHEMBL1201862, “PubChem BioAssay data set” (2004)
#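 Results reflect a 48-hour exposure of cells in 96-well plates to compound at five concentrations. GI50 is the concentration that inhibits growth by half.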 The source made the active and inactive calls. No stated cut-off is given here; in the data, active = GI50 up to about 1.1 µM and inactive = higher.
# Legend:
# Assay in all cases: inhibition of tumour cell growth, NCI panel, 48 h
# [1] = tested on: SNB-78
# [2] = tested on: DMS-273
# [3] = tested on: LXFL 529
# [4] = tested on: XF498
# [5] = tested on: DMS-114
# [6] = tested on: RXF 631
# [7] = tested on: KM-20L2
# [8] = tested on: HOP-18
# [9] = tested on: BT-549
SMILES,GI50 [1],GI50 [2],GI50 [3],GI50 [4],GI50 [5],GI50 [7],GI50 [8],GI50 [9],further results
CC1(C)CCCC2(C)[C@@H]1CC[C@]13C[C@](C)(CC[C@@H]21)[C@@H]3CO (some centres undefined),> 100 µM (inactive),> 100 µM (inactive),> 100 µM (inactive),> 100 µM (inactive),> 100 µM (inactive),> 100 µM (inactive),–,–,GI50 [6]: > 100 µM (inactive)
CC(C)(C)CI,32.1 µM (inactive),15.1 µM (inactive),33.3 µM (inactive),18.5 µM (inactive),19.7 µM (inactive),32.2 µM (inactive),> 10 µM (inactive),–,GI50 [6]: 32.3 µM (inactive)
COc1cc2c3c(n(C)c(=O)c2cc1OC)-c1cc2c(cc1/C3=C/CCCCBr)OCO2,–,–,–,–,–,–,–,> 100 µM (inactive),–
O=C(c1ccc(Cl)cc1)N1CCN=C1c1cc2ccccc2c2ccccc12,–,–,–,–,–,–,–,19 µM (inactive),–
O=C1C[C@H](Sc2ccccc2)C2(OCCO2)[C@H]2ON3CCC[C@@H]3[C@@H]12,–,–,–,–,–,–,–,4.56 µM (inactive),–
Cc1cc(NCCCCCCCNc2cc(C)nc3cc([N+](=O)[O-])ccc23)c2ccc([N+](=O)[O-])cc2n1,15.9 µM (inactive),4.29 µM (inactive),1.56 µM (inactive),13.7 µM (inactive),1.38 µM (inactive),10.8 µM (inactive),17.3 µM (inactive),20 µM (inactive),GI50 [6]: 7.93 µM (inactive)
O=C1/C(=C\c2cccc(Oc3ccccc3)c2)SC(c2ccccc2)N1c1cccc([N+](=O)[O-])c1 (centres undefined),–,–,–,–,–,–,–,> 100 µM (inactive),–
COc1cc(Nc2nc3cc(C(F)(F)F)ccc3n3cccc23)cc(OC)c1OC,–,–,–,–,–,–,–,89.5 µM (inactive),–
CC(C)OP(=O)(OC(C)C)/C(=N/Nc1ccc([N+](=O)[O-])cc1)NCCO,99.8 µM (inactive),> 100 µM (inactive),38.4 µM (inactive),> 100 µM (inactive),90.6 µM (inactive),85.7 µM (inactive),–,–,–
C=CCN1C(N)=C(C(N)=O)S/C1=C1/SC(=S)N(c2ccc(C)cc2)C1=O,–,–,> 100 µM (inactive),–,–,–,61.9 µM (inactive),–,–
COP(=O)(OC)C(N)CCSC (centres undefined),–,–,–,–,–,–,–,> 100 µM (inactive),–
O=C(CCl)NC(Cc1ccc(F)cc1)C(=O)O (centres undefined),> 100 µM (inactive),> 100 µM (inactive),–,> 100 µM (inactive),> 100 µM (inactive),> 100 µM (inactive),> 100 µM (inactive),–,–
O=C1N=C(SC(SC2=NC(=O)C3(NN2)c2ccccc2-c2ccccc23)=C(SC2=NC(=O)C3(NN2)c2ccccc2-c2ccccc23)SC2=NC(=O)C3(NN2)c2ccccc2-c2ccccc23)NNC12c1ccccc1-c1ccccc12,–,–,–,–,–,–,–,6.53 µM (inactive),–
N=c1oc2c(Cl)cc(Cl)cc2cc1C(=O)Nc1ccccn1,–,–,–,–,–,–,–,41.4 µM (inactive),–
COc1ccc(CNc2nc3cc(C(F)(F)F)ccc3nc2C)cc1OC,12.2 µM (inactive),20 µM (inactive),35.8 µM (inactive),35.3 µM (inactive),–,44.1 µM (inactive),–,–,–
O=c1ccc2ccc(S)cc2o1,–,–,–,–,–,–,–,> 100 µM (inactive),–
CC(C)(C)c1cc(C(=O)/C=C/c2ccc(O)c(O)c2O)cc(C(C)(C)C)c1O,–,–,–,–,–,–,–,7.4 µM (inactive),–
N#CC(NC12CC3CC(CC(C3)C1)C2)c1ccccc1C(F)(F)F (centres undefined),–,> 100 µM (inactive),> 100 µM (inactive),> 100 µM (inactive),> 100 µM (inactive),> 100 µM (inactive),> 100 µM (inactive),–,–
Cc1c2ccnc(C(F)(F)F)c2cc2c1[nH]c1ccccc12,86.5 µM (inactive),> 125 µM (inactive),–,12 µM (inactive),> 125 µM (inactive),> 125 µM (inactive),0.673 µM (active),–,–
COc1cc2nc(-c3cccc(N(C)C)c3)cc(O)c2cc1OC,5.83 µM (inactive),3.85 µM (inactive),5.22 µM (inactive),6.32 µM (inactive),4.73 µM (inactive),2.11 µM (inactive),3.27 µM (inactive),–,–
CCCn1c(CN(Cc2nc3ccccc3n2CCC)Cc2nc3ccccc3n2CCC)nc2ccccc21,–,–,–,–,–,–,–,5.71 µM (inactive),–
CC(O)C(O)C(N)CC=O (centres undefined),> 482 µM (inactive),> 500 µM (inactive),–,> 129 µM (inactive),> 500 µM (inactive),> 500 µM (inactive),> 500 µM (inactive),–,–
COc1cc(Nc2c3ccccc3nc3ccccc23)ccc1NS(C)(=O)=O,7.67 µM (inactive),–,4.8 µM (inactive),–,6.58 µM (inactive),4.46 µM (inactive),13.3 µM (inactive),–,–
CC(=O)O[C@H]1C(=O)[C@@]2(C)[C@H]([C@H](OC(=O)c3cccc([N+](=O)[O-])c3)[C@]3(O)C[C@H](OC(=O)[C@H](O)[C@@H](NC(=O)c4ccccc4)c4ccccc4)C(C)=C1C3(C)C)[C@]1(OC(C)=O)CO[C@@H]1C[C@@H]2O,–,–,–,–,–,–,–,0.0376 µM (active),–
O=C1c2ccccc2C(=O)N1[C@@H](Cc1ccccc1)C(=O)n1cccc1CO,–,–,–,–,–,–,–,> 100 µM (inactive),–
O=C1C=C[C@@H](COC2OC(CO)C(O)C(O)C2O)O1 (some centres undefined),–,14.1 µM (inactive),–,16.6 µM (inactive),14.1 µM (inactive),–,68.2 µM (inactive),–,–
Cc1c(C#N)c2nnn(C)c(=O)n2c1-c1ccccc1,–,–,–,–,–,–,–,87.7 µM (inactive),–
CC1=CC[C@@H]2[C@@H](CC[C@@]2(C)O)C(C)(C)[C@H]1CC[C@@H]1[C@@]2(C)CCC(=O)C(C)(C)O[C@@H]2CC[C@]1(C)O,–,–,–,–,–,–,–,19 µM (inactive),–
CC(=O)Nc1cc2c(cc1O)CC[C@@H]1[C@@H]2CC[C@]2(C)[C@@H](O)CC[C@@H]12,–,–,–,–,–,–,–,31.7 µM (inactive),–
O=C(CSc1nc2ccccc2c2ccccc12)c1ccccc1,–,–,–,–,–,–,–,> 100 µM (inactive),–
